Measured values taken from PMC3651166, “Differential Cytotoxic Activity of a Novel Palladium-Based Compound on Prostate Cell Lines, Primary Prostate Epithelial Cells and Prostate Stem Cells” (PLoS ONE, 2013).

Experiments:
LC3-II [1] = experiment: Western blotting for autophagy, cell lines; format: cell-based, human; conditions: BPH-1, PNT2-C2 and P4E6 cells
Description: (§1) Following drug treatment, cell lysates were harvested using Cytobuster Protein Extraction Reagent (71009, EMD Millipore, Darmstadt, Germany) with protease inhibitors (cOmplete, EDTA-free Protease Inhibitor Cocktail Tablets, Roche Applied Science, UK). 20 µg of protein extract were loaded on 12% SDS-PAGE gels and wet-transferred to a PVDF membrane. Antibodies used include: monoclonal anti-β-actin 1∶5000 (A5316, Sigma-Aldrich), anti-LC3B 1∶3000 (Ab51520, abcam), cleaved caspase-3 (Asp175) 1∶1000 (9661S, Cell Signaling Technology) and secondary antibodies were Rabbit anti-mouse-HRP 1∶10000 (P0260, Dako) and anti-rabbit IgG HRP-linked 1∶5000 (Cell Signaling Technology Inc. 7074S). Kaleidoscope protein marker was run on each gel (161-0324, Bio-Rad).

[2] = system: PNT2-C2, BPH-1, P4E6, PC-3 and LNCaP; experiment: Flow cytometry cell cycle analysis, cell lines; format: cell-based, human; conditions: PNT2-C2, PC3 and LNCaP cell lines, 48 h post-treatment
Description: (§2) Following drug treatment, floating cells in the media were pooled with adherent cells, which were collected by trypsinisation. Following centrifugation cells were resuspended in 0.5 ml PBS. Cells were fixed in 2 ml ice cold 70% ethanol, which was added in a dropwise fashion while vortexing. Cells were incubated on ice for 30 min then washed in 5 ml PBS and resuspended in 0.4 ml PBS. Following storage at 4°C overnight, 50 µl of RNAse (1 mg/ml) and 50 µl of propidium iodide (1 mg/ml) were added to the cells. Following incubation at 37°C for 30 min the cells were analysed for 2N and 4N DNA content on a flow cytometer (Cyan ADP Analyser, Beckman Coulter).

cleaved caspase-3 = experiment: Western blotting for apoptosis, cell lines; format: cell-based, human; conditions: BPH-1, PNT2-C2 and P4E6 cells
Description: as §1

[3] = system: primary prostate epithelial cells; experiment: Flow cytometry cell cycle analysis, primary cells; format: cell-based, human; conditions: primary prostate epithelial cells, 48 h post-treatment
Description: as §2

[4] = system: stem cells (SCs), transit-amplifying cells (TAs) and committed basal cells (CBs); experiment: ATP viability assay on fractionated primary cells; format: cell-based; conditions: 25 µM, ATP assay, not statistically significant
Description: Epithelial cells from human tumour or BPH materials were cultured for several weeks and the cells treated at very low passages. The cultured basal cell population were trypsinized, resuspended in SCM and then plated on BSA-blocked collagen I-coated plates. […] The cells that attached to substratum were trypsinised, resuspended in MACs buffer and incubated with CD133-microbeads (Cat no. 130-050-801, Miltenyi Biotec Inc., Auburn, CA, USA). MACs MS columns (Cat no. 130-042-201, Miltenyi Biotec Inc., Auburn, CA, USA) were used to select the CD133^+ and CD133^− cells. Finally, the three cell populations were obtained: stem cells (SCs) - α2β1integrin^hi/CD133^+, transit-amplifying cells (TAs) - α2β1integrin^hi/CD133^− and committed basal cells (CBs) - α2β1integrin^lo.
This assay was employed for the bioluminescent determination of the adenosine 5′-triphosphate (ATP) released from fractionated living cells (cancer stem cells, transit amplifying cells and committed basal cells). As ATP is rapidly degraded in dead cells, high intracellular levels provide a selective assay for living cells. The ATP-bioluminescent somatic cell assay kit (FLASC, Sigma-Aldrich, Saint Louis, MO, USA) was used with protocol modifications. Briefly, 50–500 cells per well were seeded in a collagen-coated 96 well plate in triplicate. After treating cells for 72 h, 150 µL of medium was removed from each well. 50 µL of cell extraction reagent was added into each original well. Following 20 min incubation at RT, 50 µL of cell extract was transferred to a white 96-well plate. Finally, 50 µL of ATP assay mix solution was added into the wells and luminescence was read using a plate reader (PolarStar Optima, BMG Labtech, UK). Percent viability was calculated using the formula (% Viability = [(Sample RLU/Control RLU)]x100 where RLU refers to relative light units.

breast cancer cells = system: breast cancer cells; set-up: method as in PMID 21885165; conditions: in vitro and in vivo; cited from earlier work
LC3-II [5] = experiment: Western blotting and immunofluorescence for autophagy, primary cells; format: cell-based, human; conditions: all primary cells
Description: γH2AX staining: Cells were seeded onto 8-well collagen I-coated chamber slides. […] After blocking of non-specific binding with 2% BSA in PBS with 1% goat serum for 1 hour at RT, primary antibody (anti-phospho-histone H2A.X (Ser139), clone JBW301, Millipore, Cat no. 05–636) at 1∶1000 dilution was added in 3% BSA in PBS at 4°C overnight followed by three washes in 0.5% BSA in PBS with 0.175% Tween 20. Following incubation with secondary antibody (Goat anti-mouse Alexa Fluor 568, Invitrogen, Cat no. A-11004) at 1∶1000 dilution for 45 min in 3% BSA in PBS and three more washes in the same washing buffer, the slides were mounted using Vectashield with DAPI (Vector Laboratories, Cat no. H-1200). LC3-B staining: Cells were treated as above then fixed with 4% paraformaldehyde, followed by an incubation in 0.3% Triton X-100. After blocking with 10% normal goat serum, cells were incubated in anti-LC3B 1∶200 (Ab51520, abcam) diluted in 0.1% Triton X-100 in PBS. Secondary antibody was Alexa Fluor 568 goat anti-rabbit IgG 1∶1000 (Invitrogen A11011).

COc1cc([C@@H]2c3cc4c(cc3[C@@H](O[C@@H]3O[C@@H]5CO[C@@H](C)O[C@H]5[C@H](O)[C@H]3O)[C@H]3COC(=O)[C@H]23)OCO4)cc(OC)c1O [Etoposide, reference compound]
LC3-II expression (autophagy) (LC3-II [1]): did not significantly change levels of LC3-I and LC3-II
cell cycle effect [2]: S phase arrest
cleaved caspase-3 (apoptosis) (cleaved caspase-3): clear induction of cleaved caspase-3
cell cycle effect [3]: S phase arrest
viability of SCs versus TA and CB cells after treatment [4]: SCs appeared to have increased viability compared to TA and CB cells

O.O.O.O.O=C1[N-]S(=O)(=O)c2ccccc21.O=C1c2ccccc2S(=O)(=O)[N]1[Pd+].c1ccc(-c2cccc(-c3ccccn3)n2)nc1 [[Pd(sac)(terpy)](sac)·4 H2O]
anti-growth activity (breast cancer cells): powerful anti-growth activity

N.N.[Cl][Pt][Cl] [Cisplatin, reference compound]
LC3-II expression (autophagy) (LC3-II [1]): did not significantly change levels of LC3-I and LC3-II
cell cycle effect [2]: S phase arrest
cleaved caspase-3 (apoptosis) (cleaved caspase-3): clear induction of cleaved caspase-3
LC3-II (autophagy) (LC3-II [5]): no significant change in LC3-I or LC3-II levels
cell cycle effect [3]: S phase arrest
